Holding throughout (assay): Cell growth inhibition assay (CellTiter-Glo cell viability, 7 days)
What all share (format): cell-based
(ATP-based viability assays read luminescence as a measure of living cells.)

The test system of assay [1] is MDA-MB-436 (mutated BRCA1) cell lines. The following applies: Homo sapiens, 168 h, MDA-MB-436 cells.
Assay [2] deals with DLD-1 parental. The settings on record: Homo sapiens, 168 h, DLD-1 parental cells. The source says: Example A: Cell Growth Inhibition Assay
The objective of this study is to evaluate the effect of invention compounds on cell proliferation through the cell viability assay in DLD-1 BRCA2(−/−) and parental isogenic pair and MDA-MB-436 (mutated BRCA1) cell lines. The CellTiter-Glo (CTG) based cell viability assay is designed to determine the number of viable cells in the culture because of compound effect, by quantifying ATP, which indicates the presence of metabolically active cells.
DLD-1 BRCA2(−/−) and parental isogenic pair were cultured in RPMI 1640 supplemented with 10% fetal bovine serum (FBS), and MDA-MB-436 cells were cultured in DMEM supplemented with 10% FBS. Both are culture at 37° C. with 5% CO2. Invention compounds were distributed to the 384 well plate (Corning, 3764) using Echo acoustic liquid handler to form a 1:3 serially diluted final concentration with top dose of 10 or 30 μM. The cells were seeded into the plate in the density of 50 cells/well (DLD-1 parental), 200 cells/well (DLD-1 BRCA2−/−), or 500 cells/well (MDA-MB-436). After a short spun, the cells were cultured in a well moisturized incubator at 37° C. with 5% CO2 for 7 days without disturbance. The cell viability was measured by CellTiter Glo 2.0 assay kit (Promega, G9243), and growth inhibition rate was calculated and plotted against final compound concentration, and the data were fitted in Xfit to generate IC50.

In assay [3] the test system is DLD-1 BRCA2(−/−). The settings on record: Homo sapiens, 168 h, DLD-1 BRCA2(-/-) cells.

The structures appear in SMILES notation.

One may read the EC50 as the concentration needed to bring the measured effect to its halfway point. `CCc1cc2ncc(CN3CC(Oc4ccc(C(=O)NC)nc4)C3)cc2[nH]c1=O` [Example 25, 5-({1-[(7-ethyl-6-oxo-5H-1,5-naphthyridin-3-yl)methyl]azetidin-3-yl}oxy)-N-methylpyridine-2-carboxamide]: the figures for the EC50 in assay [1], in assay [2] and in assay [3] were 4.2 nM, greater than 30000 nM and 8.7 nM, respectively.

`CCc1cc2ncc(CN3C[C@@H]4C(c5ccc(C(=O)NC)nc5)[C@@H]4C3)cc2[nH]c1=O` (stereo partly drawn) [Example 146]: the EC50 in assay [1] is 9.2 nM; in assay [2], greater than 30000 nM; in assay [3], 320 nM.

Regarding `[2H]C([2H])(c1cnc2cc(CC)c(=O)[nH]c2c1)N1CCN(c2cnc(C(=O)NC)c(F)c2)CC1` [Example 35], the EC50 in assay [1] was 1.3 nM; in assay [2] it was greater than 30000 nM; in assay [3], 2.3 nM.

`CCc1cc2ncc(CN3CCN(c4ccc(C(=O)NC)nc4)[C@H]4C[C@H]43)cc2[nH]c1=O` (single isomer, unassigned) [Example 3B]: the EC50 in assay [1] amounted to 1.5 nM; in assay [2], 29000 nM; in assay [3], 3.2 nM.

Consider `CCc1cc2ncc(CN3CCN(c4cnc(C(=O)NC)s4)CC3)cc2[nH]c1=O` [Example 30], for which the figures for the EC50 in assay [1], in assay [2] and in assay [3] were 58 nM, 40000 nM and 220 nM, respectively.

`CCc1cc2ncc(CN3CC=C(c4ccc(C(=O)NC)nc4)CC3)cc2[nH]c1=O` [Example 8, 1′-((7-ethyl-6-oxo-5,6-dihydro-1,5-naphthyridin-3-yl)methyl)-N-methyl-1′,2′,3′,6′-tetrahydro-[3,4′-bipyridine]-6-carboxamide]: the EC50 in assay [1] stood at 0.25 nM; in assay [2], 89000 nM; in assay [3], 1 nM.

Consider `CCc1cc2ncc(CN3CCN(c4ccc(C(=O)NC)nc4C(F)F)CC3)cc2[nH]c1=O` [Example 14, 6-(difluoromethyl)-5-{4-[(7-ethyl-6-oxo-5H-1,5-naphthyridin-3-yl)methyl]piperazin-1-yl}-N-methylpyridine-2-carboxamide], for which the EC50 in assay [1] was 0.53 nM; in assay [2], greater than 30000 nM; in assay [3], 1 nM.

For `CCc1cc2ncc(CN3CCN(c4ccc(C(=O)NC)c(F)c4)CC3)cc2[nH]c1=O` [Example 7, 4-{4-[(7-ethyl-6-oxo-5H-1,5-naphthyridin-3-yl)methyl]piperazin-1-yl}-2-fluoro-N-methylbenzamide], the 50% effective concentration (EC50) turned out to be 1.3 nM in assay [1], 300000 nM in assay [2] and 3.1 nM in assay [3].

Consider `CCc1cc2ncc(CN3CCN(c4ccc(C(=O)NC)nc4)[C@H](CF)C3)cc2[nH]c1=O` [Example 68], for which the EC50 is 1.5 nM in assay [1], greater than 30000 nM in assay [2] and 4.1 nM in assay [3].

Turning to `CCc1cc2ncc(CN3CCN(c4ccc(C(=O)NCC(F)F)nc4)CC3)cc2[nH]c1=O` [Example 13, N-(2,2-difluoroethyl)-5-{4-[(7-ethyl-6-oxo-5H-1,5-naphthyridin-3-yl)methyl]piperazin-1-yl} pyridine-2-carboxamide], the EC50 in assay [1] was 0.54 nM; in assay [2], greater than 30000 nM; in assay [3], 1 nM.

In the case of `CCc1cc2ncc(CN3CCN(c4ccc(C(=O)NC)nc4C4CC4)CC3)cc2[nH]c1=O` [Example 6, 6-cyclopropyl-5-(4-((7-ethyl-6-oxo-5,6-dihydro-1,5-naphthyridin-3-yl)methyl)piperazin-1-yl)-N-methylpicolinamide], the values for the EC50 in assay [1], in assay [2] and in assay [3] were 1.7 nM, 11000 nM and 2.8 nM, respectively.

Take `CCc1cc2ncc(CN3CCN(c4ccc(C(=O)NC)nc4)[C@@H]4C[C@@H]43)cc2[nH]c1=O` (stereo in doubt) [Example 3A, rel-5-[(1R,6S)-5-[(7-ethyl-6-oxo-5H-1,5-naphthyridin-3-yl)methyl]-2,5-diazabicyclo[4.1.0]heptan-2-yl]-N-methylpyridine-2-carboxamide]: the values for the EC50 in assay [1], in assay [2] and in assay [3] were 24 nM, greater than 30000 nM and 230 nM, respectively.
